Experimental data: PubChem BioAssay AID1918958 (Molecular Pharmacology Branch, DTP, NCI, 2023)

Test system: NCI-H196 complex spheroid viability
Assay: Anticancer human tumor NCI-H196 cell line growth inhibition [LSD1];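 note: spheroids exposed to agents for 7 days before readout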;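 for viability, T/C: 100% = DMSO vehicle control viability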
Conditions: for IC50: curve of first compound; for viability, T/C: stronger effect = lower value
How it was run: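 Multicellular complex spheroids of tumor cells with human endothelial cells (HUVEC) and mesenchymal stem cells; the LSD1 inhibitor iadademstat was combined with standard-of-care or investigational agents. Top concentration at or near clinical Cmax, half-log dilutions; final DMSO ≤0.25%.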

[1] = second compound 0.1 µM, first compound 0.0316 µM
[2] = second compound 0.1 µM, first compound 0.1 µM
[3] = second compound 0.1 µM, first compound 0.316 µM
[4] = second compound 0.1 µM, first compound 1 µM
[5] = second compound 0.1 µM, first compound 3.16 µM
[6] = second compound 0.1 µM, first compound 10 µM
[7] = second compound 0.316 µM, first compound 0.0316 µM
[8] = second compound 0.316 µM, first compound 0.1 µM
[9] = second compound 0.316 µM, first compound 0.316 µM
[10] = second compound 0.316 µM, first compound 1 µM
[11] = second compound 0.316 µM, first compound 3.16 µM
[12] = second compound 0.316 µM, first compound 10 µM
[13] = second compound 1 µM, first compound 0.0316 µM
[14] = second compound 1 µM, first compound 0.1 µM
[15] = second compound 1 µM, first compound 0.316 µM
[16] = second compound 1 µM, first compound 1 µM
[17] = second compound 1 µM, first compound 3.16 µM
[18] = second compound 1 µM, first compound 10 µM
[19] = second compound 3.16 µM, first compound 0.0316 µM
[20] = second compound 3.16 µM, first compound 0.1 µM
[21] = second compound 3.16 µM, first compound 0.316 µM
[22] = second compound 3.16 µM, first compound 1 µM
[23] = second compound 3.16 µM, first compound 3.16 µM
[24] = second compound 3.16 µM, first compound 10 µM
[25] = second compound 10 µM, first compound 0.0316 µM
[26] = second compound 10 µM, first compound 0.1 µM
[27] = second compound 10 µM, first compound 0.316 µM
[28] = second compound 10 µM, first compound 1 µM
[29] = second compound 10 µM, first compound 3.16 µM
[30] = second compound 10 µM, first compound 10 µM
[31] = second compound 0.1 µM, first compound 0.00316 µM
[32] = second compound 0.1 µM, first compound 0.01 µM
[33] = second compound 0.316 µM, first compound 0.00316 µM
[34] = second compound 0.316 µM, first compound 0.01 µM
[35] = second compound 1 µM, first compound 0.00316 µM
[36] = second compound 1 µM, first compound 0.01 µM
[37] = second compound 3.16 µM, first compound 0.00316 µM
[38] = second compound 3.16 µM, first compound 0.01 µM
[39] = second compound 10 µM, first compound 0.00316 µM
[40] = second compound 10 µM, first compound 0.01 µM

CC(C)c1c(-c2ccccc2)nc2c(C#N)c[nH]n2c1=O + NC1CC1c1ccc(-c2cccc(O)c2)cc1
IC50 (second compound 0.1 µM): > 10000 nM
IC50 (second compound 0.316 µM): > 10000 nM
IC50 (second compound 1 µM): > 10000 nM
IC50 (second compound 3.16 µM): > 10000 nM
IC50 (second compound 10 µM): > 10000 nM
viability, T/C [1]: 87.2%
viability, T/C [2]: 96.8%
viability, T/C [3]: 88.4%
viability, T/C [4]: 83.5%
viability, T/C [5]: 93.1%
viability, T/C [6]: 90.1%
viability, T/C [7]: 92.7%
viability, T/C [8]: 102%
viability, T/C [9]: 98%
viability, T/C [10]: 89.4%
viability, T/C [11]: 94.6%
viability, T/C [12]: 88.2%
viability, T/C [13]: 96.7%
viability, T/C [14]: 95%
viability, T/C [15]: 91.1%
viability, T/C [16]: 96.7%
viability, T/C [17]: 104%
viability, T/C [18]: 79.8%
viability, T/C [19]: 101%
viability, T/C [20]: 88.5%
viability, T/C [21]: 95.3%
viability, T/C [22]: 96.2%
viability, T/C [23]: 91.6%
viability, T/C [24]: 94.1%
viability, T/C [25]: 103%
viability, T/C [26]: 92.6%
viability, T/C [27]: 93.1%
viability, T/C [28]: 88.4%
viability, T/C [29]: 86.3%
viability, T/C [30]: 88%

CC1COCCN1c1cc(-c2ccnn2C)c2ccnc(-c3ccn[nH]3)c2n1 (stereo not given) + NC1CC1c1ccc(-c2cccc(O)c2)cc1
IC50 (second compound 0.1 µM): 368 nM
IC50 (second compound 0.316 µM): 176 nM
IC50 (second compound 1 µM): 96.1 nM
IC50 (second compound 3.16 µM): 212 nM
IC50 (second compound 10 µM): 168 nM
viability, T/C [31]: 79.2%
viability, T/C [32]: 74.4%
viability, T/C [1]: 72.5%
viability, T/C [2]: 57.1%
viability, T/C [3]: 49.8%
viability, T/C [4]: 43.2%
viability, T/C [33]: 72.4%
viability, T/C [34]: 78.7%
viability, T/C [7]: 71.4%
viability, T/C [8]: 55.4%
viability, T/C [9]: 45.4%
viability, T/C [10]: 38.4%
viability, T/C [35]: 85.6%
viability, T/C [36]: 87.6%
viability, T/C [13]: 65.5%
viability, T/C [14]: 51%
viability, T/C [15]: 51.4%
viability, T/C [16]: 45.9%
viability, T/C [37]: 86.6%
viability, T/C [38]: 83.5%
viability, T/C [19]: 70.9%
viability, T/C [20]: 56.1%
viability, T/C [21]: 47.7%
viability, T/C [22]: 41.5%
viability, T/C [39]: 89.4%
viability, T/C [40]: 81.2%
viability, T/C [25]: 79.3%
viability, T/C [26]: 55.2%
viability, T/C [27]: 43.5%
viability, T/C [28]: 40.9%

CC1COCCN1c1cc(C2(S(C)(=N)=O)CC2)nc(-c2ccnc3[nH]ccc23)n1 (stereo not given) + NC1CC1c1ccc(-c2cccc(O)c2)cc1
IC50 (second compound 0.1 µM): > 10000 nM
IC50 (second compound 0.316 µM): > 10000 nM
IC50 (second compound 1 µM): > 10000 nM
IC50 (second compound 3.16 µM): > 10000 nM
IC50 (second compound 10 µM): > 10000 nM
viability, T/C [1]: 97.7%
viability, T/C [2]: 88.3%
viability, T/C [3]: 92.2%
viability, T/C [4]: 89.1%
viability, T/C [5]: 73.9%
viability, T/C [6]: 63.6%
viability, T/C [7]: 97.3%
viability, T/C [8]: 95.8%
viability, T/C [9]: 88%
viability, T/C [10]: 89.6%
viability, T/C [11]: 77.1%
viability, T/C [12]: 64.5%
viability, T/C [13]: 98.2%
viability, T/C [14]: 93.1%
viability, T/C [15]: 108%
viability, T/C [16]: 89.2%
viability, T/C [17]: 67.7%
viability, T/C [18]: 62%
viability, T/C [19]: 103%
viability, T/C [20]: 96.8%
viability, T/C [21]: 93.9%
viability, T/C [22]: 85.6%
viability, T/C [23]: 70.2%
viability, T/C [24]: 61.5%
viability, T/C [25]: 94.8%
viability, T/C [26]: 102%
viability, T/C [27]: 93%
viability, T/C [28]: 91.6%
viability, T/C [29]: 71.3%
viability, T/C [30]: 64.3%

COc1ccc([C@@H](O)c2cc(-c3ncnc4cc(N5CCOCC5)ccc34)c(F)cc2Cl)nn1 + NC1CC1c1ccc(-c2cccc(O)c2)cc1
IC50 (second compound 0.1 µM): > 10000 nM
IC50 (second compound 0.316 µM): > 10000 nM
IC50 (second compound 1 µM): > 10000 nM
IC50 (second compound 3.16 µM): > 10000 nM
IC50 (second compound 10 µM): 6480 nM
viability, T/C [1]: 106%
viability, T/C [2]: 98.6%
viability, T/C [3]: 79.1%
viability, T/C [4]: 68.4%
viability, T/C [5]: 64.2%
viability, T/C [6]: 52%
viability, T/C [7]: 92%
viability, T/C [8]: 90%
viability, T/C [9]: 82.7%
viability, T/C [10]: 71%
viability, T/C [11]: 60.7%
viability, T/C [12]: 50%
viability, T/C [13]: 102%
viability, T/C [14]: 94.7%
viability, T/C [15]: 90%
viability, T/C [16]: 69.4%
viability, T/C [17]: 62.2%
viability, T/C [18]: 50.1%
viability, T/C [19]: 94.9%
viability, T/C [20]: 105%
viability, T/C [21]: 90.8%
viability, T/C [22]: 68.2%
viability, T/C [23]: 59.9%
viability, T/C [24]: 48.2%
viability, T/C [25]: 103%
viability, T/C [26]: 100%
viability, T/C [27]: 86.2%
viability, T/C [28]: 72.8%
viability, T/C [29]: 59.2%
viability, T/C [30]: 44.7%

Nc1ncn(C2CC(O)C(CO)S2)c(=O)n1 (stereo not given) + NC1CC1c1ccc(-c2cccc(O)c2)cc1
IC50 (second compound 0.1 µM): > 300 nM
IC50 (second compound 0.316 µM): > 300 nM
IC50 (second compound 1 µM): > 300 nM
IC50 (second compound 3.16 µM): > 300 nM
IC50 (second compound 10 µM): > 300 nM
viability, T/C (second compound 0.1 µM, first compound 0.000949 µM): 98.2%
viability, T/C (second compound 0.1 µM, first compound 0.003 µM): 105%
viability, T/C (second compound 0.1 µM, first compound 0.00949 µM): 108%
viability, T/C (second compound 0.1 µM, first compound 0.03 µM): 101%
viability, T/C (second compound 0.1 µM, first compound 0.0949 µM): 108%
viability, T/C (second compound 0.1 µM, first compound 0.3 µM): 102%
viability, T/C (second compound 0.316 µM, first compound 0.000949 µM): 107%
viability, T/C (second compound 0.316 µM, first compound 0.003 µM): 111%
viability, T/C (second compound 0.316 µM, first compound 0.00949 µM): 112%
viability, T/C (second compound 0.316 µM, first compound 0.03 µM): 113%
viability, T/C (second compound 0.316 µM, first compound 0.0949 µM): 112%
viability, T/C (second compound 0.316 µM, first compound 0.3 µM): 113%
viability, T/C (second compound 1 µM, first compound 0.000949 µM): 103%
viability, T/C (second compound 1 µM, first compound 0.003 µM): 110%
viability, T/C (second compound 1 µM, first compound 0.00949 µM): 113%
viability, T/C (second compound 1 µM, first compound 0.03 µM): 109%
viability, T/C (second compound 1 µM, first compound 0.0949 µM): 134%
viability, T/C (second compound 1 µM, first compound 0.3 µM): 116%
viability, T/C (second compound 3.16 µM, first compound 0.000949 µM): 101%
viability, T/C (second compound 3.16 µM, first compound 0.003 µM): 102%
viability, T/C (second compound 3.16 µM, first compound 0.00949 µM): 106%
viability, T/C (second compound 3.16 µM, first compound 0.03 µM): 99.3%
viability, T/C (second compound 3.16 µM, first compound 0.0949 µM): 117%
viability, T/C (second compound 3.16 µM, first compound 0.3 µM): 119%
viability, T/C (second compound 10 µM, first compound 0.000949 µM): 101%
viability, T/C (second compound 10 µM, first compound 0.003 µM): 109%
viability, T/C (second compound 10 µM, first compound 0.00949 µM): 103%
viability, T/C (second compound 10 µM, first compound 0.03 µM): 102%
viability, T/C (second compound 10 µM, first compound 0.0949 µM): 103%
viability, T/C (second compound 10 µM, first compound 0.3 µM): 99.5%

O=C(C=Cn1cnc(-c2cc(C(F)(F)F)cc(C(F)(F)F)c2)n1)NNc1cnccn1 + NC1CC1c1ccc(-c2cccc(O)c2)cc1
IC50 (second compound 0.1 µM): < 3.16 nM
IC50 (second compound 0.316 µM): < 3.16 nM
IC50 (second compound 1 µM): < 3.16 nM
IC50 (second compound 3.16 µM): < 3.16 nM
IC50 (second compound 10 µM): < 3.16 nM
viability, T/C [31]: 32.5%
viability, T/C [32]: 27.1%
viability, T/C [1]: 19.8%
viability, T/C [2]: 14.6%
viability, T/C [3]: 10.4%
viability, T/C [4]: 7.16%
viability, T/C [33]: 33.1%
viability, T/C [34]: 25.6%
viability, T/C [7]: 20.7%
viability, T/C [8]: 12.4%
viability, T/C [9]: 10.7%
viability, T/C [10]: 8.26%
viability, T/C [35]: 31.3%
viability, T/C [36]: 31.5%
viability, T/C [13]: 19.6%
viability, T/C [14]: 12.1%
viability, T/C [15]: 10.6%
viability, T/C [16]: 9.55%
viability, T/C [37]: 45.6%
viability, T/C [38]: 31.5%
viability, T/C [19]: 15.9%
viability, T/C [20]: 14%
viability, T/C [21]: 10.2%
viability, T/C [22]: 10.3%
viability, T/C [39]: 36.2%
viability, T/C [40]: 29.2%
viability, T/C [25]: 18.3%
viability, T/C [26]: 15.9%
viability, T/C [27]: 12.4%
viability, T/C [28]: 11.9%
